# Measured values reported in patent US10738275B2, “Paenibacillus sp. strain, cultivation method and use of the same” (BRIGHT DAIRY & FOOD CO., LTD, priority 2016, dated 2020).
# Tests used:
# All bacteria = experiment: in-vitro culture of infant fecal flora, PCR-intestinal microarray detection; assay type: cell-based, infants' fecal flora; conditions: 0.4% (w/v) added, infant fecal flora in SIEM, anaerobic, 8 hours, 37° C.; blank control defined as 0
# Experimental: (§1) The standard culture solution of fecal flora is prepared in accordance with the method of Minekus et al (Models of the gastrointestinal tract to study microbial interactions Original Research Article Biology of Growing Animals, 2005, 2:142-154).
# (2) Certain amount of standard ileum efflux culture medium (SIEM, with 0.047 g/L pectin, 0.047 g/L xyloglucan, 0.047 g/L arabinogalactan, 0.047 g/L amylose, 0.392 g/L starch, 24.0 g/L casein, 17.0 g/L Tween 80, 24.0 g/L bacto peptone, 0.4 g/L oxgall, and 0.2 g/L cysteine) is added into a 96-well microtitration plate. Then, the 0.1% of the standard culture solution of fecal flora is added. The percentage refers to the volume percentage of the standard ileum efflux culture medium. Then, 0.4% of the purified extracellular polysaccharide (“BD3526 extracellular polysaccharide” for short) obtained in Example 11 and 0.4% of the commercialized fructooligosaccharide (FOS for short) are added into different wells among the 96 wells respectively. The final volume of liquid in each well is 1.5 mL. Meanwhile, the blank control is arranged. They are anaerobically cultured for 8 hours under 37° C. The percentage refers to the mass-volume percentage of the final volume of the liquid in a well of the 96-well microtitration plate. […]
# All bifidobacteria = experiment: as above; assay type: cell-based, bifidobacteria in infants' fecal flora; conditions: 0.4% (w/v) added, 8 hours, 37° C.; for The increased log (ORF/mL) value of the flora in samples with respect to the blank control, All bifidobacteria: infant fecal flora in SIEM, anaerobic, blank control defined as 0
# Experimental: as §1
# (§2) (2) Certain amount of standard ileum efflux culture medium (SIEM, with 0.047 g/L pectin, 0.047 g/L xyloglucan, 0.047 g/L arabinogalactan, 0.047 g/L amylose, 0.392 g/L starch, 24.0 g/L casein, 17.0 g/L Tween 80, 24.0 g/L bacto peptone, 0.4 g/L oxgall, and 0.2 g/L cysteine) is added into a 96-well microtitration plate. Then, the 0.1% of the standard culture solution of fecal flora is added. The percentage refers to the volume percentage of the standard ileum efflux culture medium. Then, 0.4% of the purified extracellular polysaccharide (“BD3526 extracellular polysaccharide” for short) obtained in Example 11 and 0.4% of the commercialized fructooligosaccharide (FOS for short) are added into different wells among the 96 wells respectively. The final volume of liquid in each well is 1.5 mL. Meanwhile, the blank control is arranged. They are anaerobically cultured for 8 hours under 37° C. The percentage refers to the mass-volume percentage of the final volume of the liquid in a well of the 96-well microtitration plate.
# (§3) (3) Once the cultivation is completed, the fermentation broth is mixed with 250 μL of lysis buffer, […], of zirconium bead liquid (0.1 mm) and 200 μL of phenol solution. Then they are homogenized on the bead beater (BIO SPEC Inc. U.S.) for twice (2 minutes for each time). The DNA is extracted with DNA Kit (TIANGEN BIOTECH CO., LTD). Then, PCR-intestinal microarray detection method (SALAZAR N, GUEIMONDE M, HERNANDEZ-BARRANCO A M, et al. Exopolysaccharides produced by intestinal Bifidobacterium strains act as fermentable substrates for human intestinal bacteria. Applied and environmental microbiology, 2008, 74(15): 4737-45.) is used to analyze the number of floras in samples with respect to that of the blank control (standard solution of fecal flora cultured without adding polysaccharide).
# B. Longum = experiment: as above; assay type: cell-based; conditions: 0.4% (w/v) added, infant fecal flora in SIEM, anaerobic, 8 hours, 37° C.; blank control defined as 0
# Experimental: as §1, §2, §3
# B. breve = experiment: as above; assay type: cell-based; conditions: 0.4% (w/v) added, infant fecal flora in SIEM, anaerobic, 8 hours, 37° C.; blank control defined as 0
# Experimental: as §1, §2, §3
# B. infantis = experiment: as above; assay type: cell-based; conditions: 0.4% (w/v) added, infant fecal flora in SIEM, anaerobic, 8 hours, 37° C.; blank control defined as 0
# Experimental: as §1, §2, §3
# human intestinal flora = experiment: in-vitro culture of adult fecal flora, PCR-DGGE of V3 area for total bacteria; assay type: cell-based; conditions: 0.4% added, faeces of healthy adults, anaerobic, 24 hours, 37° C.
# Experimental: (1) The faeces of 30 healthy adults (male or female, with the age range from 23 to 25, excluding those who have intestinal diseases or taking antibiotic drugs recently). They are dissolved in pH7.3-phosphate buffer (8 g/L-NaCl, 0.2 g/L-KCl, 1.15 g/L-NaHPO4, and 0.2 g/L-KH2PO4) and mixed uniformly. It is added into the culture system at a volume ratio of 1:10. Then, 0.4% of the purified extracellular polysaccharide (BD3526EPS for short) obtained in Embodiment 11 and 0.4% of the commercialized fructooligosaccharide (FOS for short) are added into the culture system respectively. Meanwhile, the blank control is arranged. They are anaerobically cultured for 24 hours under 37° C. The percentages refer to the mass-volume percentages of the culture system.
# (2) Once the culture is completed, the phenol-chloroform method (ERCOLINI D, HILL P J, DODD C E. Bacterial community structure and location in Stilton cheese. Applied and environmental microbiology, 2003, 69(6): 3540-8.) is used to extract the DNA of the cultures and fecal flora. […]
Substance,"The increased log (ORF/mL) value of the flora in samples with respect to the blank control, All bacteria (All bacteria)","proliferation of the bifidobacteria in infants' fecal flora compared with the blank control group (FIG. 11), in words (All bifidobacteria)","The increased log (ORF/mL) value of the flora in samples with respect to the blank control, All bifidobacteria (All bifidobacteria)","The increased log (ORF/mL) value of the flora in samples with respect to the blank control, B. Longum (B. Longum)","The increased log (ORF/mL) value of the flora in samples with respect to the blank control, B. breve (B. breve)","The increased log (ORF/mL) value of the flora in samples with respect to the blank control, B. infantis (B. infantis)","brightness of PCR-DGGE stripes (FIG. 12), proliferation of bacteria in human intestinal flora, in words (human intestinal flora)"
levan [BD3526 extracellular polysaccharide],0.448 log (ORF/mL),can also promote the proliferation of the bifidobacteria in infants' fecal flora,0.74 log (ORF/mL),0.36 log (ORF/mL),0.81 log (ORF/mL),0.017 log (ORF/mL),significantly brighter than those of the FOS group and the blank control group
"fructooligosaccharide [FOS, reference compound]",0.12 log (ORF/mL),,1.07 log (ORF/mL),0.37 log (ORF/mL),1.18 log (ORF/mL),−0.121 log (ORF/mL),
